Source: the supplement of paper PMC10307832

Assays:
Test in all cases: relative viability (nuclei count vs DMSO), 5 days (fraction); higher = more cells survive
BEN = test system: BEN
Summary of the method: (§1)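 Medians of duplicate plates are given as relative viability. That measure is the nuclei count in treated wells divided by the count in vehicle wells. Counts were taken on 4× images of lung cancer cell lines in 1536-well plates, 5 days after pin-tool dosing the day after seeding with one drug alone or a fixed anchor-drug dose plus five library-drug doses (not always all listed) in √10 steps.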

NCI-H520 = test system: NCI-H520
Summary of the method: as §1

NCI-H2087 = test system: NCI-H2087
Summary of the method: as §1

NCI-H1355 = test system: NCI-H1355
Summary of the method: as §1

PC-14 = test system: PC-14
Summary of the method: as §1

NCI-H1666 = test system: NCI-H1666
Summary of the method: as §1

LXF-289 = test system: LXF-289
Summary of the method: as §1

CAL-12T = test system: CAL-12T
Summary of the method: as §1

NCI-H1993 = test system: NCI-H1993
Summary of the method: as §1

NCI-H1651 = test system: NCI-H1651
Summary of the method: as §1

LU99A = test system: LU99A
Summary of the method: as §1

NCI-H2085 = test system: NCI-H2085
Summary of the method: as §1

NCI-H2170 = test system: NCI-H2170
Summary of the method: as §1

SK-MES-1 = test system: SK-MES-1
Summary of the method: as §1

NCI-H1563 = test system: NCI-H1563
Summary of the method: as §1

NCI-H1437 = test system: NCI-H1437
Summary of the method: as §1

NCI-H460 = test system: NCI-H460
Summary of the method: as §1

NCI-H1792 = test system: NCI-H1792
Summary of the method: as §1

HCC-44 = test system: HCC-44
Summary of the method: as §1

COR-L23 = test system: COR-L23
Summary of the method: as §1

NCI-H1755 = test system: NCI-H1755
Summary of the method: as §1

## CN1CCN(CCOc2cc(OC3CCOCC3)c3c(Nc4c(Cl)ccc5c4OCO5)ncnc3c2)CC1 [Saracatinib] + Cc1nc(NC(=O)N2CCC[C@H]2C(N)=O)sc1-c1ccnc(C(C)(C)C(F)(F)F)c1 [Alpelisib] (partner 2 µM)
BEN; first compound 0.02 µM
  relative viability: 1.08
BEN; first compound 0.2 µM
  relative viability: 1.03
BEN; first compound 0.6325 µM
  relative viability: 1.07
BEN; first compound 2 µM
  relative viability: 0.85
NCI-H520; first compound 0.02 µM
  relative viability: 0.901
NCI-H520; first compound 0.2 µM
  relative viability: 0.779
NCI-H520; first compound 0.6325 µM
  relative viability: 0.545
NCI-H520; first compound 2 µM
  relative viability: 0.493
NCI-H2087; first compound 0.02 µM
  relative viability: 1.13
NCI-H2087; first compound 0.2 µM
  relative viability: 0.934
NCI-H2087; first compound 0.6325 µM
  relative viability: 1.41
NCI-H2087; first compound 2 µM
  relative viability: 1.04
NCI-H1355; first compound 0.02 µM
  relative viability: 0.848
NCI-H1355; first compound 0.2 µM
  relative viability: 0.833
NCI-H1355; first compound 0.6325 µM
  relative viability: 0.861
NCI-H1355; first compound 2 µM
  relative viability: 0.794
PC-14; first compound 0.02 µM
  relative viability: 0.996
PC-14; first compound 0.2 µM
  relative viability: 0.681
PC-14; first compound 0.6325 µM
  relative viability: 0.46
PC-14; first compound 2 µM
  relative viability: 0.172
NCI-H1666; first compound 0.02 µM
  relative viability: 1.22
NCI-H1666; first compound 0.2 µM
  relative viability: 0.936
NCI-H1666; first compound 0.6325 µM
  relative viability: 1.2
NCI-H1666; first compound 2 µM
  relative viability: 0.837
LXF-289; first compound 0.02 µM
  relative viability: 1.03
LXF-289; first compound 0.2 µM
  relative viability: 0.908
LXF-289; first compound 0.6325 µM
  relative viability: 1.02
LXF-289; first compound 2 µM
  relative viability: 0.985
CAL-12T; first compound 0.02 µM
  relative viability: 1.28
CAL-12T; first compound 0.2 µM
  relative viability: 1.06
CAL-12T; first compound 0.6325 µM
  relative viability: 1.33
CAL-12T; first compound 2 µM
  relative viability: 0.927
NCI-H1993; first compound 0.02 µM
  relative viability: 0.68
NCI-H1993; first compound 0.2 µM
  relative viability: 0.531
NCI-H1993; first compound 2 µM
  relative viability: 0.656
NCI-H1651; first compound 0.02 µM
  relative viability: 1.02
NCI-H1651; first compound 0.2 µM
  relative viability: 0.729
NCI-H1651; first compound 0.6325 µM
  relative viability: 0.913
NCI-H1651; first compound 2 µM
  relative viability: 0.804
LU99A; first compound 0.02 µM
  relative viability: 0.568
LU99A; first compound 0.2 µM
  relative viability: 0.371
LU99A; first compound 0.6325 µM
  relative viability: 0.513
LU99A; first compound 2 µM
  relative viability: 0.417
NCI-H2085; first compound 0.02 µM
  relative viability: 0.957
NCI-H2085; first compound 0.2 µM
  relative viability: 0.85
NCI-H2085; first compound 0.6325 µM
  relative viability: 0.91
NCI-H2085; first compound 2 µM
  relative viability: 0.888
NCI-H2170; first compound 0.02 µM
  relative viability: 0.731
NCI-H2170; first compound 0.2 µM
  relative viability: 0.749
NCI-H2170; first compound 0.6325 µM
  relative viability: 0.752
NCI-H2170; first compound 2 µM
  relative viability: 0.464
SK-MES-1; first compound 0.02 µM
  relative viability: 0.713
SK-MES-1; first compound 0.2 µM
  relative viability: 0.77
SK-MES-1; first compound 0.6325 µM
  relative viability: 0.76
SK-MES-1; first compound 2 µM
  relative viability: 0.644
NCI-H1563; first compound 0.02 µM
  relative viability: 0.992
NCI-H1563; first compound 0.2 µM
  relative viability: 0.882
NCI-H1563; first compound 0.6325 µM
  relative viability: 0.725
NCI-H1563; first compound 2 µM
  relative viability: 0.693
NCI-H1437; first compound 0.02 µM
  relative viability: 0.987
NCI-H1437; first compound 0.2 µM
  relative viability: 0.894
NCI-H1437; first compound 0.6325 µM
  relative viability: 0.845
NCI-H1437; first compound 2 µM
  relative viability: 0.895
NCI-H460; first compound 0.02 µM
  relative viability: 0.574
NCI-H460; first compound 0.2 µM
  relative viability: 0.347
NCI-H460; first compound 0.6325 µM
  relative viability: 0.289
NCI-H460; first compound 2 µM
  relative viability: 0.175
NCI-H1792; first compound 0.02 µM
  relative viability: 0.706
NCI-H1792; first compound 0.2 µM
  relative viability: 0.492
NCI-H1792; first compound 0.6325 µM
  relative viability: 0.929
NCI-H1792; first compound 2 µM
  relative viability: 0.608
HCC-44; first compound 0.02 µM
  relative viability: 0.859
HCC-44; first compound 0.2 µM
  relative viability: 0.658
HCC-44; first compound 0.6325 µM
  relative viability: 0.874
HCC-44; first compound 2 µM
  relative viability: 0.862
COR-L23; first compound 0.02 µM
  relative viability: 0.755
COR-L23; first compound 0.2 µM
  relative viability: 0.621
COR-L23; first compound 0.6325 µM
  relative viability: 0.591
COR-L23; first compound 2 µM
  relative viability: 0.603
NCI-H1755; first compound 0.02 µM
  relative viability: 0.928
NCI-H1755; first compound 0.2 µM
  relative viability: 0.709
NCI-H1755; first compound 0.6325 µM
  relative viability: 0.864
NCI-H1755; first compound 2 µM
  relative viability: 0.712
